Experimental data: ChEMBL document CHEMBL1146891, “Preparation of 1-(3-aminobenzo[d]isoxazol-5-yl)-1H-pyrazolo[4,3-d]pyrimidin-7(6H)-ones as potent, selective, and efficacious inhibitors of coagulation factor Xa” (Bioorg Med Chem Lett, 2006)
pKi: −log10 of the molar value. Structures can show the parent of a compound that is named as a salt.

Columns and labels:
[1] = target: T1, Coagulation factor X (Homo sapiens, UniProt P00742); test: Binding affinity to human f10a
[2] = target: Prothrombin (Homo sapiens, UniProt P00734); test: Binding affinity to human thrombin
[3] = target: Trypsin (Homo sapiens, UniProt P07477+P07478+P35030); test: Binding affinity to human trypsin; type: protein assay
[4] = target: Vitamin K-dependent protein C (Homo sapiens, UniProt P04070); test: Binding affinity to human activated protein C
Sequence of Vitamin K-dependent protein C (P04070 43-197 limits assumed): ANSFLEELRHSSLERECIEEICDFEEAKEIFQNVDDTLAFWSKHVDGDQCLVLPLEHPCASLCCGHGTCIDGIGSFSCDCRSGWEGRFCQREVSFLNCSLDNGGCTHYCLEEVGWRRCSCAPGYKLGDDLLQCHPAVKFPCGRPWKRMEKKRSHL
Sequence of Vitamin K-dependent protein C (P04070 212-461 limits assumed): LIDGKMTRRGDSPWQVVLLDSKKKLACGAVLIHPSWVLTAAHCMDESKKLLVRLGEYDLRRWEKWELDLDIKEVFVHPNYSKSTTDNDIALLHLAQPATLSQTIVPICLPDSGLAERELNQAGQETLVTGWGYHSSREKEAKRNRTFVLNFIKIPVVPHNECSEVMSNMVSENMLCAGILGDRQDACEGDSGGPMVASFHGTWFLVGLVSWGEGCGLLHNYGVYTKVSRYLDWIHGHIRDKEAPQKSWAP

[5] = target: Coagulation factor IX (Homo sapiens, UniProt P00740); test: Binding affinity to human f9a
Sequence of Coagulation factor IX (P00740 47-191 limits assumed): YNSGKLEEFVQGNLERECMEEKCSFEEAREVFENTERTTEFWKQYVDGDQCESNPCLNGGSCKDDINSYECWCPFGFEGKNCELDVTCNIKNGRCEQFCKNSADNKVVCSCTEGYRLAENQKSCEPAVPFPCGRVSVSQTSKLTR
Sequence of Coagulation factor IX (P00740 227-461 limits assumed): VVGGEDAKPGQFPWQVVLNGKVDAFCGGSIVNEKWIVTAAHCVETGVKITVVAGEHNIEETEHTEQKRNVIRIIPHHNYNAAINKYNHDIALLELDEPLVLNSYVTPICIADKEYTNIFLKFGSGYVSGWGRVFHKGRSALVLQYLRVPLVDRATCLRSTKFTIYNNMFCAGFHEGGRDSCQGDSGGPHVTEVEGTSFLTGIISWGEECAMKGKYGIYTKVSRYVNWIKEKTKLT

[6] = target: Plasminogen (Homo sapiens, UniProt P00747); test: Binding affinity to human plasmin
Sequence of Plasminogen (P00747 97-580 limits assumed): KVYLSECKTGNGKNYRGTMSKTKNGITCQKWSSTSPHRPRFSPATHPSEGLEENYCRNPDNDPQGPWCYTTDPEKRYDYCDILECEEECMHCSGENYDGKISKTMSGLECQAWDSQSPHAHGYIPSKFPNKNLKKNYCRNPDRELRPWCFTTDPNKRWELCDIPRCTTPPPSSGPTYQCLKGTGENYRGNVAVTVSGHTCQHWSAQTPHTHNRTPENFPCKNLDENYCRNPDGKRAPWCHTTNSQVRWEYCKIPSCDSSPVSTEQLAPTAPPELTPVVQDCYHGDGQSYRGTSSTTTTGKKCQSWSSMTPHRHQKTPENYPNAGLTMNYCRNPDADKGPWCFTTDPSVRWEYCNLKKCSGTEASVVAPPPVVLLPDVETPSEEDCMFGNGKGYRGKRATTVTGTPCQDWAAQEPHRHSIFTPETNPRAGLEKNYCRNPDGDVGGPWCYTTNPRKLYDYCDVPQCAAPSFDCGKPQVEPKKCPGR
Sequence of Plasminogen (P00747 581-810 limits assumed): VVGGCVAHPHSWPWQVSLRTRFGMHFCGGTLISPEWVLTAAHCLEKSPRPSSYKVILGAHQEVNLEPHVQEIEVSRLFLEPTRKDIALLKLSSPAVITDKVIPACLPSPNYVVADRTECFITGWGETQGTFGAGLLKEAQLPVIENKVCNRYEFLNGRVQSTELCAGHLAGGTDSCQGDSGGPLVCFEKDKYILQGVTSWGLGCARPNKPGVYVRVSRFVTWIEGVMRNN

[7] = target: Tissue-type plasminogen activator (Homo sapiens, UniProt P00750); test: Binding affinity to human tPA
Sequence of Tissue-type plasminogen activator (P00750 whole entry): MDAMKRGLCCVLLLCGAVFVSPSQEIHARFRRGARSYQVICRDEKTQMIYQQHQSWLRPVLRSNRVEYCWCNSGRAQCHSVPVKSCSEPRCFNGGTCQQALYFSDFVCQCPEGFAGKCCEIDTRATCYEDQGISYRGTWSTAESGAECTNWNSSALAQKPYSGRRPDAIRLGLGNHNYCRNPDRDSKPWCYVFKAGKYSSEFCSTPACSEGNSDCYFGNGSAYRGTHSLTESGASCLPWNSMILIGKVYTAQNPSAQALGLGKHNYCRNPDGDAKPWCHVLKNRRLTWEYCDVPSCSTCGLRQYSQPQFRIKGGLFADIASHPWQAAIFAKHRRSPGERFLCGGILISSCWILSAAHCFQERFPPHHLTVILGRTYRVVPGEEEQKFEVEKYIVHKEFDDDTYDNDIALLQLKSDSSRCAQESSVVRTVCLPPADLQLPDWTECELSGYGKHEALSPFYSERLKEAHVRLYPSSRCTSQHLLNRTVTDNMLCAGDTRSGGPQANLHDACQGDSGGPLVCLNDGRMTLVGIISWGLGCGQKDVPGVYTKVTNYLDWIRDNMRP

[8] = target: Urokinase-type plasminogen activator (Homo sapiens, UniProt P00749); test: Binding affinity to human urokinase
[9] = target: Chymotrypsinogen B (Homo sapiens, UniProt P17538); test: Binding affinity to human chymotrypsin
Sequence of Chymotrypsinogen B (P17538 34-164 limits assumed, other chains not shown): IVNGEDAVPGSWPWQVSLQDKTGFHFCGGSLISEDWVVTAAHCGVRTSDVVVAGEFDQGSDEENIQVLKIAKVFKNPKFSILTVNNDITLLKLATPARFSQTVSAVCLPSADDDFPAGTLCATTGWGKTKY
Sequence of Chymotrypsinogen B (P17538 167-263 limits assumed, other chains not shown): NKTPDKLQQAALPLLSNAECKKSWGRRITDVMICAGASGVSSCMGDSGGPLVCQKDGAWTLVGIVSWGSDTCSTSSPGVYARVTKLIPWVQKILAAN

[10] = Clearance in dog at 0.5 mg/kg, iv and 0.2 mg/kg, po; type: ADME, organism-based, Canis lupus familiaris; settings: in vivo
[11] = Volume of distribution in dog at 0.5 mg/kg, iv and 0.2 mg/kg, po; type: ADME, organism-based, Canis lupus familiaris; settings: in vivo, read-out: Vdss
[12] = Half life in dog at 0.5 mg/kg, iv and 0.2 mg/kg, po; type: ADME, organism-based, Canis lupus familiaris; settings: in vivo
[13] = Bioavailability in dog at 0.5 mg/kg, iv and 0.2 mg/kg, po; type: ADME, organism-based, Canis lupus familiaris; settings: in vivo
[14] = Apparent permeability in Caco-2 cells; type: ADME, cell-based; settings: human
[15] = target: T1, Coagulation factor X; test: Anticoagulant activity in human plasma measured as activated partial thromboplastin time; type: functional, cell-free
[16] = target: T2, Coagulation factor VII/tissue factor (Homo sapiens) (UniProt P08709+P13726); test: Anticoagulant activity in human plasma measured as prothrombin time; type: functional, cell-free
[17] = target: T2, Coagulation factor VII/tissue factor (Homo sapiens); test: Anticoagulant activity in rabbit plasma measured as prothrombin time; type: functional, cell-free; settings: Oryctolagus cuniculus, target entry is the homologue from another species
[18] = species on record: Homo sapiens; test: Selectivity for f10a over chymotrypsin
[19] = target: Thrombin and coagulation factor X (Homo sapiens) (UniProt P00734+P00742); test: Selectivity for f10a over thrombin; type: protein assay
Sequence of Thrombin and coagulation factor X (Homo sapiens) (P00742 whole entry, looked up, other chains not shown): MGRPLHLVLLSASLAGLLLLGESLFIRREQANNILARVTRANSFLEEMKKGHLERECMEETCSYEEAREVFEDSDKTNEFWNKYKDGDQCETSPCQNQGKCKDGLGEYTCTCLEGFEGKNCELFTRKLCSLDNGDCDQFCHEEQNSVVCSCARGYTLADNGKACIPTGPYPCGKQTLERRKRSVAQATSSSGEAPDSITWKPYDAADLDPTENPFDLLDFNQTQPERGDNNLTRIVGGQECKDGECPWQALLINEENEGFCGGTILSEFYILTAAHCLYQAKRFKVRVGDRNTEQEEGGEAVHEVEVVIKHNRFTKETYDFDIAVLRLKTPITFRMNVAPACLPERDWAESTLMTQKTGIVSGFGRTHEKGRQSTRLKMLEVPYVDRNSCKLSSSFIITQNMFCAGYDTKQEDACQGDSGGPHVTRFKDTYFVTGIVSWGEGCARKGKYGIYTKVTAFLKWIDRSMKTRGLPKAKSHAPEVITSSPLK

[20] = species on record: Homo sapiens; test: Selectivity for f10a over trypsin
[21] = species on record: Homo sapiens; test: Selectivity for f10a over activated protein C
[22] = target: Coagulation factor VII and X (Homo sapiens) (UniProt P00742+P08709); test: Selectivity for f10a over f7a; type: protein assay
[23] = species on record: Homo sapiens; test: Selectivity for f10a over plasmin
[24] = species on record: Homo sapiens; test: Selectivity for f10a over tPA
[25] = target: Coagulation factor X and plasma kallikrein (Homo sapiens) (UniProt P03952+P00742); test: Selectivity for f10a over plasma kallikrein; type: cell-free
Sequence of Coagulation factor X and plasma kallikrein (Homo sapiens) (P00742 whole entry, looked up): as the sequence (P00742 whole entry, looked up, other chains not shown) above
Sequence of Coagulation factor X and plasma kallikrein (Homo sapiens) (P03952 whole entry, looked up): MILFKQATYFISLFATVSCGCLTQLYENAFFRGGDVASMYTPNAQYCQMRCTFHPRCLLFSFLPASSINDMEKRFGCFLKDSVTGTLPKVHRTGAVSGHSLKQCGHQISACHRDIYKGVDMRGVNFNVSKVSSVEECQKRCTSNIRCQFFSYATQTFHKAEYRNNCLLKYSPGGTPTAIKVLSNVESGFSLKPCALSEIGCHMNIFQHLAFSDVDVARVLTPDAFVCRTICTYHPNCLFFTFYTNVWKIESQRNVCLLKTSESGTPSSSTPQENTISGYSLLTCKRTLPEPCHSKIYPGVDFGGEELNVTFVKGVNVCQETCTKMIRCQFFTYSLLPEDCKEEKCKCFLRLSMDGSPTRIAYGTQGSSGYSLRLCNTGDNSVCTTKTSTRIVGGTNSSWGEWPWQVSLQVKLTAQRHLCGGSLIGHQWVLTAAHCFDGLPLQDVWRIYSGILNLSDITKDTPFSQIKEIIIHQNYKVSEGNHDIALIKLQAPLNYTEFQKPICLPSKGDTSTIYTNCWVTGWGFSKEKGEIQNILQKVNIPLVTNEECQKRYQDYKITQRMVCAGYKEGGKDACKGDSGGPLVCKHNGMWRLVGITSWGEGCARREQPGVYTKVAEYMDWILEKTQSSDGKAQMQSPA

[26] = species on record: Homo sapiens; test: Selectivity for f10a over urokinase
[27] = Stability at pH 1.0; type: physicochemical; settings: buffer
[28] = Stability at pH 4.0; type: physicochemical; settings: buffer
[29] = Protein binding in rabbit plasma; type: ADME, organism-based, Oryctolagus cuniculus; settings: read-out: PPB (converted)
[30] = target: T3, Coagulation factor X (Oryctolagus cuniculus, UniProt O19045); test: Binding affinity to rabbit f10a
T3 sequence (O19045 whole entry): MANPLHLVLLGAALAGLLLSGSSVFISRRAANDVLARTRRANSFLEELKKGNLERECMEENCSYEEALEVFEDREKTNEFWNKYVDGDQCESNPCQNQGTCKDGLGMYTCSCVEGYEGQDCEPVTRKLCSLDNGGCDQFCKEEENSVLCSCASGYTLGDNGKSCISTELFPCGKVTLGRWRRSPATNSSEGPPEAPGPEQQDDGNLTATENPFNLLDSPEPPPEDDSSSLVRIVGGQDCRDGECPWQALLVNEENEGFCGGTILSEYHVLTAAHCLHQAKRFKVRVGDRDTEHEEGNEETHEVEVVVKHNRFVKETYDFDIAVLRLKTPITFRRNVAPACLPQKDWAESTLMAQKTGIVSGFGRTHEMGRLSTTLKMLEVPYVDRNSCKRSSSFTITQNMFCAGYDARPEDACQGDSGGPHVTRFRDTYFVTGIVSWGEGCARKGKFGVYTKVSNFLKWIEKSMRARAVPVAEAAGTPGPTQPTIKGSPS

[31] = test system: Oryctolagus cuniculus; test: Inhibition of thrombus formation in iv dosed rabbit arterio-venous shunt model; type: functional, organism-based

T1 sequence (P00742 41-179 limits assumed): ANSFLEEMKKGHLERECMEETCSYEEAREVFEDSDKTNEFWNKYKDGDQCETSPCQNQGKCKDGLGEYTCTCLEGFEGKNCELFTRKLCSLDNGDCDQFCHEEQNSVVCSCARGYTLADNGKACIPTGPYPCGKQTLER
T1 sequence (P00742 235-488 limits assumed): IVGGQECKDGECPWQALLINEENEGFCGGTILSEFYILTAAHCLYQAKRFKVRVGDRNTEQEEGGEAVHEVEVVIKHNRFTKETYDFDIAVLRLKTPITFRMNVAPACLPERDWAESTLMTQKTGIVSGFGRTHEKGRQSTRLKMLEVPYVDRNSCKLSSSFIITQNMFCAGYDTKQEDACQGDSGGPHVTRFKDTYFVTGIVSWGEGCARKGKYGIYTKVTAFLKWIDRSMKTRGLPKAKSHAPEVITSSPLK

Nc1noc2ccc(-n3nc(C(F)(F)F)c4c3C(=O)N(c3ccc(-c5ccccc5CN5CC[C@@H](O)C5)cc3)CN4)cc12
pKi [1]: 9.68 | pKi [2]: 6.89 | Ki [3]: > 4200 nM | pKi [4]: < 4.70 | pKi [5]: < 4.39 | pKi [6]: < 4.82 | pKi [7]: < 4.48 | pKi [8]: < 4.89 | pKi [9]: 5.49

Nc1noc2ccc(-n3nc(C(F)(F)F)c4c3C(=O)N(c3ccc(-c5ccccc5CN5CC[C@@H](O)C5)cc3)CN4)cc12.O=C(O)C(F)(F)F
clearance [10]: 16.3 mL/min/kg | Vd [11]: 4.2 L/kg | half-life [12]: 4.3 h | bioavailability [13]: 27% | Papp [14]: 3.9 ×10⁻⁶ cm/s

Cc1nn(-c2ccc3onc(N)c3c2)c2c(=O)n(-c3ccc(-c4ccccc4CN4CC[C@H](O)C4)cc3)cnc12
pKi [1]: 9.30 | 2aPTT [15]: 4.3 µM | 2PT [16]: 2.1 µM

Nc1noc2ccc(-n3nc(C(F)(F)F)c4[nH]c(=O)n(-c5ccc(-c6ccccc6CN6CC[C@@H](O)C6)cc5)c(=O)c43)cc12
pKi [1]: 9.96 | 2aPTT [15]: 74.5 µM | 2PT [16]: 24.1 µM

Cc1nc2c(C(F)(F)F)nn(-c3ccc4onc(N)c4c3)c2c(=O)n1-c1ccc(-c2ccccc2CN2CC[C@@H](O)C2)cc1 [listing 1 of 2 here]
2aPTT [15]: 28 µM | 2PT [16]: 6.6 µM

CN(C)Cc1ccccc1-c1ccc(N2CNc3c(C(F)(F)F)nn(-c4ccc5onc(N)c5c4)c3C2=O)cc1
2aPTT [15]: 1.7 µM

CN(C)Cc1nccn1-c1ccc(-n2c(=O)[nH]c3c(C(F)(F)F)nn(-c4ccc5onc(N)c5c4)c3c2=O)c(F)c1
pKi [1]: 9.46 | 2aPTT [15]: 37.8 µM | 2PT [16]: 14.9 µM

CN(C)Cc1ccccc1-c1ccc(-c2nnc3c(C(F)(F)F)nn(-c4ccc5onc(N)c5c4)c3c2O)cc1
pKi [1]: 8.26

Cc1nn(-c2ccc3onc(N)c3c2)c2c(=O)n(-c3ccc(-c4ccccc4CN(C)C)cc3)cnc12.O=C(O)C(F)(F)F
clearance [10]: 55 mL/min/kg | Vd [11]: 9.5 L/kg | half-life [12]: 2.5 h | bioavailability [13]: 2% | Papp [14]: 11 ×10⁻⁶ cm/s

Nc1nc2c(C(F)(F)F)nn(-c3ccc4onc(N)c4c3)c2c(O)c1-c1ccc(-c2ccccc2CN2CCC(O)CC2)cc1
pKi [1]: 9.11 | 2aPTT [15]: 638 µM | 2PT [16]: 230 µM

Cc1nn(-c2ccc3onc(N)c3c2)c2c(=O)n(-c3ccc(-c4ccccc4CN4CC[C@@H](O)C4)cc3)c(C)nc12 [listing 1 of 2 here]
2aPTT [15]: 5.8 µM | 2PT [16]: 2.5 µM | 2PT [17]: 3.4 µM | Ratio Ki [18]: > 1000 | Ratio Ki [19]: > 500 | Ratio Ki [20]: > 1000 | Ratio Ki [21]: > 1000 | Ratio Ki [22]: > 1000 | Ratio Ki [23]: > 1000 | Ratio Ki [24]: > 1000 | Ratio Ki [25]: > 1000 | Ratio Ki [26]: > 1000

Cc1nn(-c2ccc3onc(N)c3c2)c2c(=O)n(-c3ccc(-c4ccccc4CNC(C)C)cc3)cnc12
pKi [1]: 8.82 | 2aPTT [15]: 3 µM | 2PT [16]: 1.9 µM

CN(C)Cc1ccccc1-c1ccc(-n2cnc3c(C(F)(F)F)nn(-c4ccc5onc(N)c5c4)c3c2=O)cc1
pKi [1]: 9.46 | 2aPTT [15]: 3.7 µM | 2PT [16]: 2.6 µM | Stability [27]: 83.2% | Stability [28]: 72.3%

CN(C)Cc1nccn1-c1ccc(NC(=O)c2cc(C(F)(F)F)nn2-c2ccc3onc(N)c3c2)c(F)c1 [RAZAXABAN HYDROCHLORIDE]
fraction unbound [29]: 0.07

Cc1nc2c(C(F)(F)F)nn(-c3ccc4onc(N)c4c3)c2c(=O)n1-c1ccc(-c2ccccc2CN2CC[C@@H](O)C2)cc1 [listing 2 of 2 here]
pKi [1]: 9.74

Cc1nn(-c2ccc3onc(N)c3c2)c2c(=O)n(-c3ccc(-c4ccccc4CN4CC[C@@H](O)C4)cc3)c(C)nc12 [listing 2 of 2 here]
pKi [1]: 9.43 | pKi [2]: 6.61 | Ki [3]: > 4200 nM | pKi [4]: < 4.12 | pKi [5]: < 4.39 | pKi [6]: < 4.82 | pKi [7]: < 4.48 | pKi [8]: < 4.89 | pKi [9]: 6.24 | pKi [30]: 9.23 | ID50 [31]: 2.4 µmol/kg/h | fraction unbound [29]: 0.09
